# Measured values from patent publication US11142527B2, “Dihydropyrimidine compounds and uses thereof in medicine” (SUNSHINE LAKE PHARMA CO., LTD., priority 2017, dated 2021).
# Columns and labels:
# HBV = assay: Test of anti HBV activity in vitro (viral DNA by qPCR); type: cell-based; conditions: Hepatitis B virus; HepG2.2.15 cells, viral DNA in cell culture supernatant by qPCR; read-out: EC50 values of the compound of the invention on viral replication
# Procedure, shortened: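 HepG2.2.15 cells (integrated HBV genome) were grown to confluence, then treated with compound in 4-fold dilutions from 4 μM final (0.5% DMSO). Secreted viral DNA in supernatant was quantified by SYBR qPCR against an HBV plasmid standard curve; EC50 from four-parameter nonlinear regression of concentration versus copy number.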
# [1] = Cytotoxicity test with CellTiter Glo; type: cell-based; conditions: human, HepG2.2.15 cells, highest concentration 150 μM, read-out: CC50 values of the compounds of the invention
# Procedure: Test 2: Cytotoxicity and Selectivity Index
# Methods of Testing Cytotoxicity and Selectivity Index
# The serial diluted compound was added to a 384 wells plate at 50 μL HepG2.2.15 cell per well (3000 cells per well), the highest final concentration in the experiment is 150 μM (200 fold dilution). The plate was cultured at 37° C. in an incubator with CO2 for 4 days, and cytotoxicity of the compound was detected using CellTiter Glo agent.
# The cytotoxicity of the compound was calculated using the following formulate, cytotoxicity (%)=100−(detection value/mean of DMSO control wells values×100) CC50 values were calculated by a four parametric nonlinear regression model using Graphpad Prism 5 software to manage concentration−cytotoxicity (%).
compound,measurement,setting,value
"COC(=O)C1=C(CN2CCN3C(=O)N(c4ccc(N5CCC(C(=O)O)CC5)cc4F)C[C@@H]3C2)NC(c2nccs2)=N[C@H]1c1ccc(F)cc1Cl [Example 31, 1-(4-((S)-7-(((R)-6-(2-chloro-4-fluorophenyl)-5-(methoxycarbonyl)-2-(thiazol-2-yl)-3,6-dihydropyrimidin-4-yl)methyl)-3-oxohexahydroimidazo[1,5-a]pyrazin-2(3H)-yl)-3-fluorophenyl)piperidine-4-carboxylic acid]",EC50,HBV,16 nM
same,CC50 at 4 days,[1],> 150000 nM
"COC(=O)C1=C(CN2CCN3C(=O)N(c4cc(F)cc(N5CCC(C(=O)O)CC5)c4)C[C@@H]3C2)NC(c2nccs2)=N[C@H]1c1ccc(F)cc1Cl [Example 32, 1-(3-((S)-7-(((R)-6-(2-chloro-4-fluorophenyl)-5-(methoxycarbonyl)-2-(thiazol-2-yl)-3,6-dihydropyrimidin-4-yl)methyl)-3-oxohexahydroimidazo[1,5-a]pyrazin-2(3H)-yl)-5-fluorophenyl)piperidine-4-carboxylic acid]",EC50,HBV,6 nM
same,CC50 at 4 days,[1],> 150000 nM
"COC(=O)C1=C(CN2CCN3C(=O)N(c4ccc(-c5ccc(C(=O)O)cc5F)c(F)c4)C[C@@H]3C2)NC(c2nccs2)=N[C@H]1c1ccc(F)cc1Cl [Example 33, 4′-((S)-7-(((R)-6-(2-chloro-4-fluorophenyl)-5-(methoxycarbonyl)-2-(thiazol-2-yl)-3,6-dihydropyrimidin-4-yl)methyl)-3-oxohexahydroimidazo[1,5-a]pyrazin-2(3H)-yl)-2,2′-difluoro-[1,1′-diphenyl]-4-carboxylic acid]",EC50,HBV,7 nM
same,CC50 at 4 days,[1],> 150000 nM
"COC(=O)C1=C(CN2CCN3C(=O)N(c4ccc(-c5ccc(C(=O)O)c(F)c5)c(F)c4)C[C@@H]3C2)NC(c2nccs2)=N[C@H]1c1ccc(F)cc1Cl [Example 34, 4′-((S)-7-(((R)-6-(2-chloro-4-fluorophenyl)-5-(methoxycarbonyl)-2-(thiazol-2-yl)-3,6-dihydropyrimidin-4-yl)methyl)-3-oxohexahydroimidazo[1,5-a]pyrazin-2(3H)-yl)-2′,3-difluoro-[1,1′-diphenyl]-4-carboxylic acid]",EC50,HBV,7 nM
same,CC50 at 4 days,[1],> 150000 nM
"COC(=O)C1=C(CN2CCN3C(=O)N(c4ccc(-c5ccc(C(=O)O)cc5)c(F)c4)C[C@@H]3C2)NC(c2nccs2)=N[C@H]1c1ccc(F)cc1Cl [Example 35, 4′-((S)-7-(((R)-6-(2-chloro-4-fluorophenyl)-5-(methoxycarbonyl)-2-(thiazol-2-yl)-3,6-dihydropyrimidin-4-yl)methyl)-3-oxohexahydroimidazo[1,5-a]pyrazin-2(3H)-yl)-2′-fluoro-[1,1′-diphenyl]-4-carboxylic acid]",EC50,HBV,7 nM
same,CC50 at 4 days,[1],> 150000 nM
"COC(=O)C1=C(CN2CCN3C(=O)N(c4nc(-c5ccc(CC(C)(C)C(=O)O)cc5)cs4)C[C@@H]3C2)NC(c2nccs2)=N[C@H]1c1ccc(F)cc1Cl [Example 36, 3-(4-(2-((S)-7-(((R)-6-(2-chloro-4-fluorophenyl)-5-(methoxycarbonyl)-2-(thiazol-2-yl)-3,6-dihydropyrimidin-4-yl)methyl)-3-oxohexahydroimidazo[1,5-a]pyrazin-2(3H)-yl)thiazol-4-yl)phenyl)-2,2-dimethylprop ionic acid]",EC50,HBV,22 nM
same,CC50 at 4 days,[1],> 150000 nM
"COC(=O)C1=C(CN2CCN3C(=O)N(CC#Cc4ccc(CO)cc4)C[C@@H]3C2)NC(c2nccs2)=N[C@H]1c1ccc(F)cc1Cl [Example 37, (R)-methyl 4-(2-chloro-4-fluorophenyl)-6-(((S)-2-(3-(4-(hydroxymethyl)phenyl)prop-2-yn-1-yl)-3-oxohexahydroimidazo[1,5-a]pyrazin-7(1H)-yl)methyl)-2-(thiazol-2-yl)-1,4-dihydropyrimidine-5-carboxylate]",EC50,HBV,12.1 nM
same,CC50 at 4 days,[1],> 150000 nM
"COC(=O)C1=C(CN2CCN3C(=O)N(CC#Cc4ccc(C(C)(C)O)cc4)C[C@@H]3C2)NC(c2nccs2)=N[C@H]1c1ccc(F)cc1Cl [Example 38, (R)-methyl 4-(2-chloro-4-fluorophenyl)-6-(((S)-2-(3-(4-(2-hydroxyprop-2-yl)phenyl)-2-propyn-1-yl)-3-oxohexahydroimidazo[1,5-a]pyrazin-7(1H)-yl)methyl)-2-(thiazol-2-yl)-1,4-dihydropyrimidine-5-carboxylate]",EC50,HBV,7.1 nM
same,CC50 at 4 days,[1],> 150000 nM
"COC(=O)C1=C(CN2CCN3C(=O)N(CC#Cc4ccc(S(C)(=O)=O)cc4)C[C@@H]3C2)NC(c2nccs2)=N[C@H]1c1ccc(F)cc1Cl [Example 41, (R)-methyl 4-(2-chloro-4-fluorophenyl)-6-(((S)-2-(3-(4-(methylsulfonyl)phenyl)-2-propyn-1-yl)-3-oxohexahydroimidazo[1,5-a]pyrazin-7(1H)-yl)methyl)-2-(thiazol-2-yl)-1,4-dihydropyrimidine-5-carboxylate]",EC50,HBV,5.1 nM
same,CC50 at 4 days,[1],> 150000 nM
"COC(=O)C1=C(CN2CCN3C(=O)N(CC#Cc4ccc(C(=O)N(C)C)cc4)C[C@@H]3C2)NC(c2nccs2)=N[C@H]1c1ccc(F)cc1Cl [Example 42, (R)-methyl 4-(2-chloro-4-fluorophenyl)-6-(((S)-2-(3-(4-(dimethylcarbamoyl)phenyl)prop-2-yn-1-yl)-3-oxohexahydroimidazo[1,5-a]pyrazin-7(1H)-yl)methyl)-2-(thiazol-2-yl)-1,4-dihydropyrimidine-5-carboxylate]",EC50,HBV,8 nM
same,CC50 at 4 days,[1],> 150000 nM
"COC(=O)C1=C(CN2CCN3C(=O)N(CC#Cc4ccc(S(=O)(=O)N(C)C)cc4)C[C@@H]3C2)NC(c2nccs2)=N[C@H]1c1ccc(F)cc1Cl [Example 43, (R)-methyl 4-(2-chloro-4-fluorophenyl)-6-(((S)-2-(3-(4-(N,N-dimethylaminosulfonyl)phenyl)prop-2-yn-1-yl)-3-oxohexahydroimidazo[1,5-a]pyrazin-7(1H)-yl)methyl)-2-(thiazol-2-yl)-1,4-dihydropyrimidine-5-carboxylate]",EC50,HBV,7.2 nM
same,CC50 at 4 days,[1],> 150000 nM
"COC(=O)C1=C(CN2CCN3C(=O)N(CC#Cc4ccc(C#N)cc4)C[C@@H]3C2)NC(c2nccs2)=N[C@H]1c1ccc(F)cc1Cl [Example 44, (R)-methyl 4-(2-chloro-4-fluorophenyl)-6-(((S)-2-(3-(4-cyanophenyl)prop-2-yn-1-yl)-3-oxohexahydroimidazo[1,5-a]pyrazin-7(1H)-yl)methyl)-2-(thiazol-2-yl)-1,4-dihydropyrimidine-5-carboxylate]",EC50,HBV,3.6 nM
same,CC50 at 4 days,[1],> 150000 nM
"COC(=O)C1=C(CN2CCN3C(=O)N(CC#Cc4c(C)cc(C#N)cc4C)C[C@@H]3C2)NC(c2nccs2)=N[C@H]1c1ccc(F)cc1Cl [Example 48, (R)-methyl 4-(2-chloro-4-fluorophenyl)-6-(((S)-2-(3-(4-cyano-2,6-dimethylphenyl)-2-propynyl)-3-oxohexahydroimidazo[1,5-a]pyrazin-7(1H)-yl)methyl)-2-me (thiazol-2-yl)-1,4-dihydropyrimidine-5-carboxylate]",EC50,HBV,6.3 nM
same,CC50 at 4 days,[1],> 150000 nM
"COC(=O)C1=C(CN2CCN3C(=O)N(CCC#Cc4ccc(C(=O)O)cc4)C[C@@H]3C2)NC(c2nccs2)=N[C@H]1c1ccc(F)cc1Cl [Example 54, 4-(4-((S)-7-(((R)-6-(2-chloro-4-fluorophenyl)-5-(methoxycarbonyl)-2-(thiazol-2-yl)-3,6-dihydropyrimidin-4-yl)methyl)-3-oxohexahydroimidazo[1,5-a]pyrazin-2(3H)-yl)but-1-yn-1-yl)benzoic acid]",EC50,HBV,61.3 nM
same,CC50 at 4 days,[1],> 150000 nM
"COC(=O)C1=C(CN2CCN3C(=O)N(c4ccc(Oc5ccc(C(=O)N6CCOCC6)cc5)cc4)C[C@@H]3C2)NC(c2nccs2)=N[C@H]1c1ccc(F)cc1Cl [Example 56, (R)-methyl 4-(2-chloro-4-fluorophenyl)-6-(((S)-2-(4-(4-(morpholine-4-carbonyl)phenoxy)phenyl)-3-oxohexahydroimidazo[1,5-a]pyrazin-7(1H)-yl)methyl)-2-(thiazol-2-yl)-1,4-dihydropyrimidine-5-carboxylate]",EC50,HBV,12.4 nM
same,CC50 at 4 days,[1],> 150000 nM
"COC(=O)C1=C(CN2CCN3C(=O)N(c4ccc(Oc5ccc(C(=O)N6CCCC6(F)F)cc5)cc4)C[C@@H]3C2)NC(c2nccs2)=N[C@H]1c1ccc(F)cc1Cl [Example 57, (R)-methyl 4-(2-chloro-4-fluorophenyl)-6-(((S)-2-(4-(4-(2,2-difluoropyrrolidine-1-carbonyl)phenoxy)phenyl)-3-oxohexahydroimidazo[1,5-a]pyrazin-7(1H)-yl)methyl)-2-(thiazol-2-yl)-1,4-dihydropyrimidine-5-carboxylate]",EC50,HBV,28.1 nM
same,CC50 at 4 days,[1],> 150000 nM
"COC(=O)C1=C(CN2CCN3C(=O)N(c4ccc(Oc5ccc(C(=O)N6CCC(CO)CC6)cc5)cc4)C[C@@H]3C2)NC(c2nccs2)=N[C@H]1c1ccc(F)cc1Cl [Example 60, (R)-methyl 4-(2-chloro-4-fluorophenyl)-6-(((S)-2-(4-(4-(4-(hydroxymethyl)piperidine-1-carbonyl)phenoxy)phenyl)-3-oxohexahydroimidazo[1,5-a]pyrazin-7(1H)-yl)methyl)-2-(thiazol-2-yl)-1,4-dihydropyrimidine-5-carboxylate]",EC50,HBV,32.3 nM
same,CC50 at 4 days,[1],> 150000 nM
